Measured values as given in ChEMBL document CHEMBL4321822 (J Med Chem, 2019).
Active and inactive are the calls of the source. The rule behind the calls is not given here.

Tests used:
[1] = molecular target: Acetylcholinesterase (Homo sapiens) (UniProt P22303); test: Inhibition of human erythrocyte AChE at 10 uM using acetylthiocholine iodide as substrate preincubated for 20 mins followed by substrate addition and measured after 2.5 mins by DTNB reagent based spectrometric method relative to control
[2] = molecular target: Cholinesterases; ACHE & BCHE (Homo sapiens) (UniProt P06276+P22303); test: Selectivity index, ratio of IC50 for inhibition of human erythrocyte AChE to IC50 for inhibition of human plasma BChE; type: protein assay
Mus musculus [3] = test: Neuroprotection against oligomerized-amyloid beta (25 to 35)-induced Swiss mouse model of Alzheimer's disease assessed as improvement in spontaneous alternation at 0.3 mg/kg, ip administered once daily for 7 days measured on day 8 by Y-maze test; type: functional, organism-based
Mus musculus [4] = test: Neuroprotection against oligomerized-amyloid beta (25 to 35)-induced Swiss mouse model of Alzheimer's disease assessed as increase in retention latency time at 0.3 to 3 mg/kg, ip administered once daily for 7 days measured 48 to 72 hrs post-last dose by step-through passive avoidance test; type: functional, organism-based
Mus musculus [5] = test: Effect on shock sensitivity during training in Swiss mouse model of Alzheimer's disease assessed as increase in retention latency time at 0.3 to 3 mg/kg, ip administered once daily for 7 days measured 48 hrs post-last dose by step-through passive avoidance test; type: ADME, organism-based; settings: in vivo
Cholinesterase [6] = molecular target: T1, Cholinesterase (Homo sapiens, UniProt P06276); test: Inhibition of human plasma BChE using butyrylthiocholine iodide as substrate preincubated for 20 mins followed by substrate addition and measured after 2.5 mins by DTNB reagent based spectrometric method
[7] = Toxicity in oligomerized-amyloid beta (25 to 35)-induced Swiss mouse model of Alzheimer's disease assessed as effect on body weight gain at 0.3 to 3 mg/kg, ip administered once daily for 7 days measured daily during compound dosing; type: organism-based; settings: in vivo, 168 h
Cholinesterase [8] = molecular target: T1, Cholinesterase; test: Inhibition of human plasma BChE assessed as half life for enzyme-inhibitor […] at IC>85 using butyrylthiocholine iodide as substrate incubated for 1 hr prior to compound dilution further incubated for 1 to 40 mins and subsequent substrate addition and measured after 2.5 mins by DTNB reagent based UV-spectrometric method
Cholinesterase [9] = molecular target: T1, Cholinesterase; test: Inhibition of human plasma BChE assessed as carbamylation by measuring rate constant for […] formation using butyrylthiocholine iodide as substrate preincubated for 5 to 40 mins followed by substrate addition and measured after 2.5 mins by DTNB reagent based UV-spectrometric method
Cholinesterase [10] = molecular target: T1, Cholinesterase; test: Inhibition of human plasma BChE assessed as decarbamylation by measuring rate constant for enzyme recovery at IC>85 using butyrylthiocholine iodide as substrate incubated for 1 hr prior to compound dilution further incubated for 1 to 40 mins and subsequent substrate addition and measured after 2.5 mins by DTNB reagent based UV-spectrometric method
Mus musculus [11] = test: Neuroprotection against oligomerized-amyloid beta (25 to 35)-induced Swiss mouse model of Alzheimer's disease assessed as increase in number of arm entries at 0.3 to 3 mg/kg, ip administered once daily for 7 days measured on day 8 by Y-maze test; type: functional, organism-based
HT-22 [12] = test: Neurotoxicity in mouse HT22 cells assessed as reduction in cell viability up to 25 uM measured after 24 hrs by MTT assay; type: toxicity, cell-based; settings: ht-22, 24 h
Cholinesterase [13] = molecular target: T1, Cholinesterase; test: Inhibition of human plasma BChE assessed as carbamylation by measuring rate constant for inhibitor-enzyme complex formation using butyrylthiocholine iodide as substrate preincubated for 5 to 40 mins followed by substrate addition and measured after 2.5 mins by DTNB reagent based UV-spectrometric method
HT-22 [14] = test: Neuroprotection against glutamate-induced cell death in mouse HT22 cells assessed as increase in cell viability measured after 24 hrs by MTT assay; type: functional, cell-based
Mus musculus [15] = test: Effect on latency time during training in Swiss mouse model of Alzheimer's disease assessed as increase in retention latency time at 0.3 to 3 mg/kg, ip administered once daily for 7 days measured 48 hrs post-last dose by step-through passive avoidance test; type: ADME, organism-based; settings: in vivo
Mus musculus [16] = test: Neuroprotection against oligomerized-amyloid beta (25 to 35)-induced Swiss mouse model of Alzheimer's disease assessed as improvement in spontaneous alternation at 1 to 3 mg/kg, ip administered once daily for 7 days measured on day 8 by Y-maze test; type: functional, organism-based
HT-22 [17] = test: Neuroprotection against glutamate-induced cell death in mouse HT22 cells assessed as increase in cell viability at 5 uM measured after 24 hrs by MTT assay; type: functional, cell-based
Mus musculus [18] = test: Neuroprotection against oligomerized-amyloid beta (25 to 35)-induced Swiss mouse model of Alzheimer's disease assessed as increase in retention latency time at 1 to 3 mg/kg, ip administered once daily for 7 days measured 48 to 72 hrs post-last dose by step-through passive avoidance test; type: functional, organism-based
Mus musculus [19] = test: Neuroprotection against oligomerized-amyloid beta (25 to 35)-induced Swiss mouse model of Alzheimer's disease assessed as improvement in spontaneous alternation at 3 mg/kg, ip administered once daily for 7 days measured on day 8 by Y-maze test; type: functional, organism-based
Mus musculus [20] = test: Neuroprotection against oligomerized-amyloid beta (25 to 35)-induced Swiss mouse model of Alzheimer's disease assessed as improvement in spontaneous alternation at 0.3 to 3 mg/kg, ip administered once daily for 7 days measured on day 8 by Y-maze test; type: functional, organism-based
Mus musculus [21] = test: Neuroprotection against oligomerized-amyloid beta (25 to 35)-induced Swiss mouse model of Alzheimer's disease assessed as improvement in spontaneous alternation at 1 mg/kg, ip administered once daily for 7 days measured on day 8 by Y-maze test; type: functional, organism-based

Acetylcholinesterase (Homo sapiens), sequence (P22303 whole entry): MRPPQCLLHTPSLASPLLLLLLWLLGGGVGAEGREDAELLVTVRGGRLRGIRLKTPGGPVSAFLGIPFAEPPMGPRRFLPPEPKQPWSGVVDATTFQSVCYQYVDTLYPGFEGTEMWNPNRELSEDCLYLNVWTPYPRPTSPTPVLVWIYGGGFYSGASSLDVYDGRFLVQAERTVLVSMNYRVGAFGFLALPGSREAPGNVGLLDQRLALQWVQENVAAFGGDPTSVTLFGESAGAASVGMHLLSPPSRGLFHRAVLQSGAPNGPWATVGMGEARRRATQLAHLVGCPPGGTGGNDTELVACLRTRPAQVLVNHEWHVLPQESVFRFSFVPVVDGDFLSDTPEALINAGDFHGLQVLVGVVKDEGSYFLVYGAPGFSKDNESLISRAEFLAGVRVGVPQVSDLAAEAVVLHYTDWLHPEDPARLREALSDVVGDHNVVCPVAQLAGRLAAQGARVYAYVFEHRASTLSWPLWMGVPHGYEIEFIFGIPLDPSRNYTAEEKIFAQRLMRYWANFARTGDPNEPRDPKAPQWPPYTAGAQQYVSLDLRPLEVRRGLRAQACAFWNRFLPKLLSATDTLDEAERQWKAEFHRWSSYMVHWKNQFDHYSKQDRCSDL
T1 sequence (P06276 whole entry): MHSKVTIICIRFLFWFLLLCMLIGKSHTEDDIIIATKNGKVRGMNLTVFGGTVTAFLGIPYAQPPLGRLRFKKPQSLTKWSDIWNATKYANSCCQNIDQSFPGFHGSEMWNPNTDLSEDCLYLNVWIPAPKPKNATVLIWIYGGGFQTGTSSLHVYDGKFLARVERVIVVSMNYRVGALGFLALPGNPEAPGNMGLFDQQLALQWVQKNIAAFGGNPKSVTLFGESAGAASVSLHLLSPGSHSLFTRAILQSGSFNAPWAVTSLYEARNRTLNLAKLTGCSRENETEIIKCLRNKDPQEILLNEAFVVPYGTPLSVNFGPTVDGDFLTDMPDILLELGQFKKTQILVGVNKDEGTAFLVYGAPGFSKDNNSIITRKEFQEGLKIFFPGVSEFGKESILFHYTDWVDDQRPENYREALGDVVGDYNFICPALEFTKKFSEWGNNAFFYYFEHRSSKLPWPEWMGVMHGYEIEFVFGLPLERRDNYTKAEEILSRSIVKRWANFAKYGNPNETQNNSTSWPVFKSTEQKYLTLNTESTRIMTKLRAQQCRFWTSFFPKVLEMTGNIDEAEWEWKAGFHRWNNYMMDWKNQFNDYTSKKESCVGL
Cholinesterases; ACHE & BCHE (Homo sapiens), sequence (P06276 whole entry, looked up): as the sequence (P06276 whole entry) above
Cholinesterases; ACHE & BCHE (Homo sapiens), sequence (P22303 whole entry, looked up): as the sequence (P22303 whole entry) above

| Compound | inhibition [1] [%] | Ratio IC50 [2] | IC50 (Cholinesterase [6]) [nM] | T1/2 (Cholinesterase [8]) [h] | K (Cholinesterase [9]) [nM] | K (Cholinesterase [10]) [h⁻¹] | K (Cholinesterase [13]) [min⁻¹] | further results |
| --- | --- | --- | --- | --- | --- | --- | --- | --- |
| CN1c2ccc(OC(=O)NCCCN3CCOCC3)cc2CN2CCc3ccccc3C21 (stereo not drawn) | 2.1 | > 100 |  |  |  |  |  |  |
| CN1c2ccc(OC(=O)NCCCCCCN3CCOCC3)cc2CN2CCc3ccccc3C21 (stereo not drawn) | 26.1 | > 1000 | 49.3 | 16.5 | 202 | 0.042 | 0.16 | Activity (Mus musculus [3]): Active; Activity (Mus musculus [4]): Active; Activity (Mus musculus [5]): Non-Toxic; Activity [7]: Non-Toxic; Activity (Mus musculus [11]): Active; Activity (HT-22 [12]): Non-Toxic; Activity (HT-22 [14]): Dose-dependent effect; Activity (Mus musculus [15]): Non-Toxic |
| CN1c2ccc(OC(=O)NCCCCCCN3CCCC3)cc2CN2CCc3ccccc3C21 (stereo not drawn) |  | 26 | 34.3 | 0.71 |  | 0.98 |  |  |
| CN1c2ccc(OC(=O)NCCCCN3CCOCC3)cc2CN2CCc3ccccc3C21 (stereo not drawn) | 16.3 | > 1000 | 50.6 | 1.44 |  | 0.48 |  |  |
| CCCCCCCNC(=O)Oc1ccc2c(c1)CN1CCc3ccccc3C1N2C (stereo not drawn) |  |  |  |  |  |  | 0.66 | Activity (Mus musculus [4]): Active; Activity (Mus musculus [5]): Non-Toxic; Activity (Mus musculus [16]): Active; Activity [7]: Non-Toxic; Activity (Mus musculus [11]): Active; Activity (HT-22 [12]): Non-Toxic; Activity (HT-22 [17]): Active; Activity (Mus musculus [15]): Non-Toxic |
| CN1c2ccc(OC(=O)NCCCCCCN3CCCCC3)cc2CN2CCc3ccccc3C21 (stereo not drawn) |  | 14 | 83.7 | 5.64 |  | 0.123 |  |  |
| CN1c2ccc(OC(=O)NCCCCCCN3CCNCC3)cc2CN2CCc3ccccc3C21 (stereo not drawn) | 35.5 | > 100 | 80.6 | 0.48 | 121 | 1.44 | 0.32 |  |
| CN1c2ccc(OC(=O)NCCCCCCN3CCN(C(=O)OC(C)(C)C)CC3)cc2CN2CCc3ccccc3C21 (stereo not drawn) | 70.6 | > 10 | 123 |  | 1550 |  | 0.7 |  |
| CN1c2ccc(OC(=O)NCCN3CCOCC3)cc2CN2CCc3ccccc3C21 (stereo not drawn) | 4.1 | > 10 |  |  |  |  |  |  |
| CN1c2ccc(OC(=O)NCCCCN3CCc4ccccc4C3)cc2CN2CCc3ccccc3C21 (stereo not drawn) | 6 | > 100 | 192 | 24.8 |  | 0.028 |  |  |
| CN1c2ccc(OC(=O)NCCCN3CCc4ccccc4C3)cc2CN2CCc3ccccc3C21 (stereo not drawn) | 6.4 | > 10 | 1160 |  |  |  |  |  |
| CN1c2ccc(OC(=O)NCCN3CCc4ccccc4C3)cc2CN2CCc3ccccc3C21 (stereo not drawn) | 3.9 | > 10 | 1720 |  | > 200000 |  | > 20 |  |
| CCCCCCCNC(=O)Oc1ccc2c(c1)CN(C)C(c1cccs1)N2C (stereo not drawn) |  |  |  |  |  |  |  | Activity (Mus musculus [5]): Non-Toxic; Activity [7]: Non-Toxic; Activity (Mus musculus [18]): Active; Activity (Mus musculus [19]): Active; Activity (Mus musculus [11]): inactive; Activity (Mus musculus [15]): Non-Toxic |
| CN1c2ccc(O)cc2CN2CCc3ccccc3C21 (stereo not drawn) |  |  |  |  |  |  |  | Activity (Mus musculus [4]): inactive; Activity (Mus musculus [5]): Non-Toxic; Activity (Mus musculus [20]): inactive; Activity [7]: Non-Toxic; Activity (Mus musculus [11]): Active; Activity (Mus musculus [15]): Non-Toxic |
| CN1c2ccc(OC(=O)NCCCCCCCCCCN3CCc4ccccc4C3)cc2CN2CCc3ccccc3C21 (stereo not drawn) | 5.7 | > 1000 |  |  | 5.68 |  | 0.25 |  |
| CN1c2ccc(OC(=O)NCCCCCCn3ccnc3)cc2CN2CCc3ccccc3C21 (stereo not drawn) | 9.1 | > 1000 | 13.3 | 0.85 | 13.1 | 0.82 | 0.31 |  |
| CN1c2ccc(OC(=O)NCCCCCCCCN3CCOCC3)cc2CN2CCc3ccccc3C21 (stereo not drawn) | 13.6 | > 1000 | 19.8 | 0.44 |  | 1.58 |  |  |
| CN1c2ccc(OC(=O)NCCCCCCCCN3CCc4ccccc4C3)cc2CN2CCc3ccccc3C21 (stereo not drawn) | 6.2 | > 1000 | 32.6 | 0.84 |  | 0.83 |  |  |
| CN1c2ccc(OC(=O)NCCCCCCCCCCN3CCOCC3)cc2CN2CCc3ccccc3C21 (stereo not drawn) | 17.8 | > 1000 | 11.5 |  |  |  |  |  |
| CN1c2ccc(OC(=O)NCCCCCCn3cnc4ccccc43)cc2CN2CCc3ccccc3C21 (stereo not drawn) | 28.8 | > 1000 |  | 1.55 | 7.7 | 0.45 | 0.26 |  |
| CN1c2ccc(OC(=O)NCCCCCCN3CCc4ccccc4C3)cc2CN2CCc3ccccc3C21 (stereo not drawn) | 0.4 | > 1000 | 26.7 | 27.7 | 3.6 | 0.025 | 0.18 | Activity (Mus musculus [4]): Active; Activity (Mus musculus [5]): Non-Toxic; Activity (Mus musculus [21]): Active; Activity [7]: Non-Toxic; Activity (Mus musculus [11]): Active; Activity (HT-22 [12]): Non-Toxic; Activity (HT-22 [14]): Dose-dependent effect; Activity (Mus musculus [15]): Non-Toxic |
